Drawing on US11622950B2, this text covers tumor growth and tolerance of regimen for 2 compounds.

For data set [1], the system named is human H460 NSCLC cells. The data set is described as follows: Oral anti-tumor efficacy in human H460 NSCLC xenografts in mice. Format: in vivo, CD1-Nu/Nu female mice. Conditions: H460 xenograft; oral 100 mg/kg on day 8, 15, 22, 29; versus 5% dextrose or untreated. On the procedure: Human H460 NSCLC cells were obtained from American Type Cell Culture (ATCC) (catalog no. HTB-177, Manassas, Va.). These cells tested negative for viral contamination using the Mouse Antibody Production (MAP) test, performed by Charles River Labs Molecular Division, upon the receipt of the tumor cells from ATCC. The tumor cells were maintained at […] in a humidified 5% CO2 atmosphere in T225 tissue culture flasks containing 50 mL of Roswell Park Memorial Institute (RPMI)-1640 solution with 10% Fetal Bovine Serum (FBS) and 2 mM L-glutamine. Cells were split at a ratio of 1:10 every 2-3 days by trypsinization and resuspended in fresh medium in a new flask. Cells were harvested for experiments in the same way at 70-90% confluency.
CD1-Nu/Nu female mice, ˜4-6 weeks old were obtained from Charles River Laboratories. Mice were housed 5 to a cage in a micro-isolator room in the Department of Animal Laboratory Research of New York State University (SUNY) at Stony Brook. Light-dark cycles were 12 h each daily, with light from 7 a.m. to 7 p.m. […]
An acclimation period of 7 days was allowed between the arrival of the animal at the study site before tumor inoculation and experimentation. […] Tumor dimensions (length and width) were measured daily before, during and after treatment (using Vernier calipers) and the tumor volume was calculated using the prolate ellipsoid formula: (length×width^2)/2. […]
(Xenograft models place foreign cells or tissue in a host animal.)

Data set [2] deals with BxPC3 pancreatic cancer cells. Kind of data set: Oral anti-tumor efficacy in human BxPC3 pancreatic cancer xenografts in mice. The data set is classed as in vivo, CD-1 nude mice. Conditions: BxPC3 xenograft; oral dose of 100 mg/week for 4 weeks; versus 5% dextrose or untreated. On the procedure:
An acclimation period of 7 days was allowed between the arrival of the animal at the study site before tumor inoculation and experimentation. Mice were inoculated subcutaneously (SC) in the right flank with 2×10^6 human H460 NSCLC or BxPC3 pancreatic cancer cells that were suspended in 0.1 mL of Dulbeco's Phosphate Buffered Salt (PBS) solution using a 1 cc syringe with a 27-⅝ gauge needle. Tumor dimensions (length and width) were measured daily before, during and after treatment (using Vernier calipers) and the tumor volume was calculated using the prolate ellipsoid formula: (length×width^2)/2. Treatment with test or control articles began 8 days post tumor cell implantation when the tumor was approximately 300 mm^3.
A similar study was conducted in CD-1 nude mice (n=9) inoculated with 2×10^6 BxPC-3 cells. The study was initiated when tumors reached an average size of 150 mm^3 (day 0) and CPI-613 was administered at an oral dose of 100 mg/week for 4 weeks. A comparator arm (n=9) was conducted with IP treatment at a weekly dose of 25 mg/kg.

The nature of data set [3]: Clinical study of CPI-613 Drug Compound with gemcitabine hydrochloride and nab-paclitaxel: tolerance. The data set is classed as in vivo. Conditions: 500 mg/m^2 with Gemcitabine+nab-paclitaxel on days 1 and 15, human patients. The text has this: Human patients suffering from locally advanced or metastatic pancreatic cancer are to be administered 6,8-bis(benzylsulfanyl)octanoic acid triethanolamine ion pair in combination with gemcitabine hydrochloride and nab-paclitaxel. Experimental procedures are described below.
[…] CPI-613 Drug Compound is 6,8-bis(benzylsulfanyl)octanoic acid triethanolamine ion pair.

The structures appear in SMILES notation.

On to `O=C(O)CCCCC(CCSCc1ccccc1)SCc1ccccc1` (stereo not drawn) [6,8-bis(benzylsulfanyl)octanoic acid], for which the tumor growth result is given as “grew much more slowly” in data set [1] and “especially pronounced” in data set [2].

On to `O=C(O)CCCCC(CCSCc1ccccc1)SCc1ccccc1.OCCN(CCO)CCO` (stereo not drawn) [CPI-613 Drug Compound, 6,8-bis(benzylsulfanyl)octanoic acid triethanolamine ion pair], for which the tolerance of regimen entry in data set [3] is reported as “excellent tolerance”.
